These results are taken from ChEMBL document CHEMBL2331258, “HR-MALDI-MS imaging assisted screening of β-carboline alkaloids discovered from Mycena metata” (2013).

Activity calls are given as the source filed them. The rule behind the calls is not given here.

Test [1] has as its system Bacillus pumilus. The test can be described thus: Antibacterial activity against Bacillus pumilus assessed as diameter of growth inhibition zone at 0.5 umol at 26 degC after 24 hrs by agar diffusion assay. Type of test: functional. (A growth-free zone around the sample is the usual read-out of agar diffusion tests.)
The subject of test [2] is Brevibacillus brevis. The test can be described thus: Antibacterial activity against Bacillus brevis NCCB 89173 assessed as diameter of growth inhibition zone at 0.5 umol at 37 degC after 24 hrs by agar diffusion assay. In kind it is functional.
Test [3] relates to Bacillus subtilis. The test can be described thus: Antibacterial activity against Bacillus subtilis NCCB 1089 assessed as diameter of growth inhibition zone at 0.5 umol at 37 degC after 24 hrs by agar diffusion assay. In kind it is functional.
Test [4] relates to Brevibacillus brevis. The test can be described thus: Antibacterial activity against Bacillus brevis NCCB 89173 assessed as growth inhibition at 0.5 umol at 37 degC after 24 hrs by agar diffusion assay. In kind it is functional, organism-based.
The test system of the next test is Saccharomyces cerevisiae. The test can be described thus: Antibacterial activity against Saccharomyces cerevisiae assessed as growth inhibition at 0.5 umol at 26 degC after 24 hrs by agar diffusion assay. In kind it is functional, organism-based.
The subject of another test is Escherichia coli. Put plainly: Antibacterial activity against Escherichia coli assessed as growth inhibition at 0.5 umol at 37 degC after 24 hrs by agar diffusion assay. Type of test: functional, organism-based.
Another test has as its system Cladosporium cucumerinum. The test can be described thus: Antibacterial activity against Cladosporium cucumerinum CBS 177.54 assessed as growth inhibition at 0.5 umol at 18 degC after 3 to 5 days by agar diffusion assay. Type of test: functional, organism-based.
Test [5] relates to Bacillus subtilis. Put plainly: Antibacterial activity against Bacillus subtilis NCCB 1089 assessed as growth inhibition at 0.5 umol at 37 degC after 24 hrs by agar diffusion assay. In kind it is functional, organism-based.
Test [6] relates to Bacillus pumilus. Put plainly: Antibacterial activity against Bacillus pumilus assessed as growth inhibition at 0.5 umol at 26 degC after 24 hrs by agar diffusion assay. In kind it is functional, organism-based.

As to `NCCC[C@H](N)CC(=O)N[C@@H]1[C@@H](O)[C@H](OC(N)=O)[C@@H](CO)O[C@H]1/N=C1\N[C@@H]2[C@H](O)CNC(=O)[C@H]2N1` [NOURSEOTHRICIN], the entries for the “diameter of the inhibition zone (DIZ)” value in the test with Bacillus pumilus [1], in the test with Brevibacillus brevis [2] and in the test on Bacillus subtilis [3] were 25 mm, 25 mm and 14 mm, respectively.
For `C[C@@H](O)[C@H](NC(=O)c1cc2c([nH]c3ccc(O)cc32)c(CCC(=O)N2CCC[C@H]2C(=O)O)n1)C(=O)O`, the “growth inhibition (GI)” value in the test on Brevibacillus brevis [4], with Saccharomyces cerevisiae, in the test on Escherichia coli, with Cladosporium cucumerinum, in the test with Bacillus subtilis [5] and in the test with Bacillus pumilus [6] was “inactive” in each case.
